Results reported in paper PMC6950567, “Evaluation of Marine Diindolinonepyrane in Vitro and in Vivo: Permeability Characterization in Caco-2 Cells Monolayer and Pharmacokinetic Properties in Beagle Dogs” (Marine Drugs, 2019).
Where two headings read alike, the source gives them in different places.

Key:
[1] = Caco-2 cells monolayer absorption and bidirectional transport experiment; assay type: in vitro ADME, human; details: human; for Papp A→B at 2 h, 2 µM: read-out: Mean Papp AP to BL; for Papp B→A at 2 h, 2 µM: read-out: Mean Papp BL to AP; for recovery at 2 h: direction not specified, read-out: total recovery rate of control drugs
Procedure: (§1) The samples included three control drugs (fenoterol, propranolol, and digoxin) and 2,5-BHPA. […] For transfer in the AP→BL direction, 0.075 mL drug solution was added to the AP side as the supply pool, and 0.25 mL HBSS solution was added to the BL side as the receiving pool. In the BL→AP direction, 0.25 mL compound solution was added to the BL side as the supply pool, and 0.075 mL HBSS solution was added to the AP side as the receiving pool. The transwell plate was then cultured in an incubator at 37 °C for 2 h. Samples on the AP side and BL side were collected, respectively. Then, acetonitrile containing an internal label was added to each upper chamber to lyse transport membranes. The total recovery was calculated by collecting the amount of lead compound absorbed on the membrane surface or accumulated in the cell. Finally, the concentration of each sample was calculated as the ratio of the peak area between the compound and the inner target through mass spectrum analysis (API 4000).
(§2) Papp = (dCr/dt) × Vr/(A × C0)(2) where dCr/dt is the cumulative compound concentration per unit of time (µM/s); Vr is the volume in the receiving hole (mL); A is the transport membrane area; and C0 is the compound initiation concentration (µM).

[2] = system: Caco-2 cells monolayer; assay: as above; assay type: in vitro ADME, human
Procedure: as §1, §2

[3] = system: Caco-2 cell model
[4] = Caco-2, 2 µM, 0.1% bull serum albumin added
[5] = 2 µM, 0.1% bull serum albumin added

SMILES: C[C@H]1O[C@@H](O[C@H]2[C@@H](O)C[C@H](O[C@H]3[C@@H](O)C[C@H](O[C@H]4CC[C@@]5(C)[C@H](CC[C@@H]6[C@@H]5C[C@@H](O)[C@]5(C)[C@@H](C7=CC(=O)OC7)CC[C@]65O)C4)O[C@@H]3C)O[C@@H]2C)C[C@H](O)[C@@H]1O [Digoxin, digoxin, reference compound]
- efflux ratio at 2 h, 2 µM [1, 4]: 485
- Papp A→B at 2 h, 2 µM [1, 4]: 0.023 ± 0.001 ×10⁻⁶ cm/s
- Papp B→A at 2 h, 2 µM [1, 4]: 10.4 ± 0.911 ×10⁻⁶ cm/s
- efflux ratio at 2 h, 2 µM ([1]; Caco-2, 2 μM, no BSA): 260
- Papp A→B at 2 h, 2 µM ([1]; Caco-2, 2 μM, no BSA, 2 h): 0.033 ± 0.003 ×10⁻⁶ cm/s
- Papp B→A at 2 h, 2 µM ([1]; Caco-2, 2 μM, no BSA, 2 h): 9.05 ± 0.62 ×10⁻⁶ cm/s
- recovery at 2 h ([1]; Caco-2, text summary, no BSA): > 83%
- Recoveries AP to BL [2, 5]: 84.14 ± 3.13%
- Recoveries BL to AP [2, 5]: 93.35 ± 3.56%
- Total Recoveries AP to BL [2, 5]: 85.37 ± 3.52%
- Total Recoveries BL to AP [2, 5]: 93.43 ± 4.63%
- Recoveries AP to BL ([2]; 2 μM, no BSA): 83.66 ± 3.14%
- Recoveries BL to AP ([2]; 2 μM, no BSA): 82.87 ± 4.38%
- Total Recoveries AP to BL ([2]; 2 μM, no BSA): 86.44 ± 3.51%
- Total Recoveries BL to AP ([2]; 2 μM, no BSA): 83.31 ± 2.40%

SMILES: CC(Cc1ccc(O)cc1)NCC(O)c1cc(O)cc(O)c1 (centres unmarked) [Fenoterol, fenoterol, reference compound]
- Papp A→B at 2 h, 2 µM [1, 4]: 0.091 ± 0.012 ×10⁻⁶ cm/s
- Papp A→B at 2 h, 2 µM ([1]; Caco-2, 2 μM, no BSA, 2 h): 0.055 ± 0.008 ×10⁻⁶ cm/s
- recovery at 2 h ([1]; Caco-2, no BSA): > 83%
- Recoveries AP to BL [2, 5]: 94.38 ± 5.14%
- Total Recoveries AP to BL [2, 5]: 96.16 ± 6.72%
- Recoveries AP to BL ([2]; 2 μM, no BSA): 87.67 ± 1.24%
- Total Recoveries AP to BL ([2]; 2 μM, no BSA): 90.92 ± 4.23%

SMILES: CC(C)NCC(O)COc1cccc2ccccc12 (centres unmarked) [Propranolol, propranolol, reference compound]
- total recovery rate AP→BL ([2]; Caco-2): 100%
- total recovery rate of control drugs ([2]; Caco-2): more than 83%

SMILES: NNC(=O)NN1C(=O)c2cc(S(=O)(=O)[O-])cc3c(N)c(S(=O)(=O)[O-])cc(c23)C1=O.[Li+].[Li+] [fluorescence yellow]
- Papp of fluorescence yellow [3]: 0.15 ± 0.027 × 10^−6 cm·s^−1
- transmittance [3]: 0.04 ± 0.005%
